Laboratory results as given in ChEMBL document CHEMBL5724914, “Linking interpersonal differences in gut microbiota composition and drug biotransformation activity” (2024).

Assay: (§1) The drug is tested on Z-029 corresponding to rat gut metagenome with ENA study accession number: PRJEB37062 and ENA sample accession number: ERS12561828 for biotransformation under anaerobic condition. The drug concentrations were measured over 9 timepoints collected between 0 and 24 hours of incubation by liquid-chromatography-coupled mass spectrometry (LC–MS)
Conditions: 2 µM
Note: call rule not given here.

| Bacterial Biotransformation | SMILES |
| --- | --- |
| Compound NOT metabolized | O=C(CCCN1CCC(O)(c2ccc(Cl)cc2)CC1)c1ccc(F)cc1 [HALOPERIDOL] |
| Compound metabolized | COc1ccc2[nH]c([S+]([O-])Cc3ncc(C)c(OC)c3C)nc2c1 (stereo not given) [OMEPRAZOLE] |

Assay: as §1, with “on Z-022” for “on Z-029”, “to mouse” for “to rat”, “number: ERS12561821” for “number: ERS12561828”
Conditions: 2 µM

| Bacterial Biotransformation | SMILES |
| --- | --- |
| Compound NOT metabolized | O=C(CCCN1CCC(O)(c2ccc(Cl)cc2)CC1)c1ccc(F)cc1 [HALOPERIDOL] |
| Compound NOT metabolized | COc1ccc2[nH]c([S+]([O-])Cc3ncc(C)c(OC)c3C)nc2c1 (stereo not given) [OMEPRAZOLE] |

Assay: as §1, with “on Z-017” for “on Z-029”, “to mouse” for “to rat”, “number: ERS12561816” for “number: ERS12561828”
Conditions: 2 µM

| Bacterial Biotransformation | SMILES |
| --- | --- |
| Compound NOT metabolized | O=C(CCCN1CCC(O)(c2ccc(Cl)cc2)CC1)c1ccc(F)cc1 [HALOPERIDOL] |
| Compound NOT metabolized | COc1ccc2[nH]c([S+]([O-])Cc3ncc(C)c(OC)c3C)nc2c1 (stereo not given) [OMEPRAZOLE] |

Assay: as §1, with “on Z-006” for “on Z-029”, “to mouse” for “to rat”, “number: ERS12561806” for “number: ERS12561828”
Conditions: 2 µM

| Bacterial Biotransformation | SMILES |
| --- | --- |
| Compound NOT metabolized | O=C(CCCN1CCC(O)(c2ccc(Cl)cc2)CC1)c1ccc(F)cc1 [HALOPERIDOL] |
| Compound NOT metabolized | COc1ccc2[nH]c([S+]([O-])Cc3ncc(C)c(OC)c3C)nc2c1 (stereo not given) [OMEPRAZOLE] |

Assay: as §1, with “Z-005” for “Z-029”, “to” for “to rat gut”, “ERS12561805” for “ERS12561828”
Conditions: 2 µM

| Bacterial Biotransformation | SMILES |
| --- | --- |
| Compound NOT metabolized | O=C(CCCN1CCC(O)(c2ccc(Cl)cc2)CC1)c1ccc(F)cc1 [HALOPERIDOL] |
| Compound NOT metabolized | COc1ccc2[nH]c([S+]([O-])Cc3ncc(C)c(OC)c3C)nc2c1 (stereo not given) [OMEPRAZOLE] |

Assay: as §1, with “Z-004” for “Z-029”, “to” for “to rat gut”, “ERS12561804” for “ERS12561828”
Conditions: 2 µM

| Bacterial Biotransformation | SMILES |
| --- | --- |
| Compound NOT metabolized | O=C(CCCN1CCC(O)(c2ccc(Cl)cc2)CC1)c1ccc(F)cc1 [HALOPERIDOL] |
| Compound metabolized | COc1ccc2[nH]c([S+]([O-])Cc3ncc(C)c(OC)c3C)nc2c1 (stereo not given) [OMEPRAZOLE] |

Assay: as §1, with “on WLS-350” for “on Z-029”, “to human” for “to rat”, “number: ERS12561789” for “number: ERS12561828”
Conditions: 2 µM

| Bacterial Biotransformation | SMILES |
| --- | --- |
| Compound NOT metabolized | O=C(CCCN1CCC(O)(c2ccc(Cl)cc2)CC1)c1ccc(F)cc1 [HALOPERIDOL] |
| Compound metabolized | COc1ccc2[nH]c([S+]([O-])Cc3ncc(C)c(OC)c3C)nc2c1 (stereo not given) [OMEPRAZOLE] |

Assay: as §1, with “on WLS-220” for “on Z-029”, “to human” for “to rat”, “number: ERS12561769” for “number: ERS12561828”
Conditions: 2 µM

| Bacterial Biotransformation | SMILES |
| --- | --- |
| Compound metabolized | O=C(CCCN1CCC(O)(c2ccc(Cl)cc2)CC1)c1ccc(F)cc1 [HALOPERIDOL] |
| Compound metabolized | COc1ccc2[nH]c([S+]([O-])Cc3ncc(C)c(OC)c3C)nc2c1 (stereo not given) [OMEPRAZOLE] |

Assay: as §1, with “on WLS-069” for “on Z-029”, “to human” for “to rat”, “number: ERS12561748” for “number: ERS12561828”
Conditions: 2 µM

| Bacterial Biotransformation | SMILES |
| --- | --- |
| Compound metabolized | O=C(CCCN1CCC(O)(c2ccc(Cl)cc2)CC1)c1ccc(F)cc1 [HALOPERIDOL] |
| Compound metabolized | COc1ccc2[nH]c([S+]([O-])Cc3ncc(C)c(OC)c3C)nc2c1 (stereo not given) [OMEPRAZOLE] |

Assay: as §1, with “on WLS-052” for “on Z-029”, “to human” for “to rat”, “number: ERS12561747” for “number: ERS12561828”
Conditions: 2 µM

| Bacterial Biotransformation | SMILES |
| --- | --- |
| Compound NOT metabolized | O=C(CCCN1CCC(O)(c2ccc(Cl)cc2)CC1)c1ccc(F)cc1 [HALOPERIDOL] |
| Compound metabolized | COc1ccc2[nH]c([S+]([O-])Cc3ncc(C)c(OC)c3C)nc2c1 (stereo not given) [OMEPRAZOLE] |

Conditions: human gut metagenome, 24 h, 2 µM

| Bacterial Biotransformation | SMILES |
| --- | --- |
| Compound NOT metabolized | O=C(CCCN1CCC(O)(c2ccc(Cl)cc2)CC1)c1ccc(F)cc1 [HALOPERIDOL] |
| Compound metabolized | COc1ccc2[nH]c([S+]([O-])Cc3ncc(C)c(OC)c3C)nc2c1 (stereo not given) [OMEPRAZOLE] |

Conditions: human gut metagenome, 24 h, 2 µM
Remark: another data set of the same source

| Bacterial Biotransformation | SMILES |
| --- | --- |
| Compound NOT metabolized | O=C(CCCN1CCC(O)(c2ccc(Cl)cc2)CC1)c1ccc(F)cc1 [HALOPERIDOL] |
| Compound metabolized | COc1ccc2[nH]c([S+]([O-])Cc3ncc(C)c(OC)c3C)nc2c1 (stereo not given) [OMEPRAZOLE] |

Conditions: human gut metagenome, 24 h, 2 µM
Remark: another data set of the same source

| Bacterial Biotransformation | SMILES |
| --- | --- |
| Compound NOT metabolized | O=C(CCCN1CCC(O)(c2ccc(Cl)cc2)CC1)c1ccc(F)cc1 [HALOPERIDOL] |
| Compound metabolized | COc1ccc2[nH]c([S+]([O-])Cc3ncc(C)c(OC)c3C)nc2c1 (stereo not given) [OMEPRAZOLE] |

Conditions: human gut metagenome, 24 h, 2 µM
Remark: another data set of the same source

| Bacterial Biotransformation | SMILES |
| --- | --- |
| Compound NOT metabolized | O=C(CCCN1CCC(O)(c2ccc(Cl)cc2)CC1)c1ccc(F)cc1 [HALOPERIDOL] |
| Compound metabolized | COc1ccc2[nH]c([S+]([O-])Cc3ncc(C)c(OC)c3C)nc2c1 (stereo not given) [OMEPRAZOLE] |

Conditions: human gut metagenome, 24 h, 2 µM
Remark: another data set of the same source

| Bacterial Biotransformation | SMILES |
| --- | --- |
| Compound NOT metabolized | O=C(CCCN1CCC(O)(c2ccc(Cl)cc2)CC1)c1ccc(F)cc1 [HALOPERIDOL] |
| Compound metabolized | COc1ccc2[nH]c([S+]([O-])Cc3ncc(C)c(OC)c3C)nc2c1 (stereo not given) [OMEPRAZOLE] |

Conditions: human gut metagenome, 24 h, 2 µM
Remark: another data set of the same source

| Bacterial Biotransformation | SMILES |
| --- | --- |
| Compound NOT metabolized | O=C(CCCN1CCC(O)(c2ccc(Cl)cc2)CC1)c1ccc(F)cc1 [HALOPERIDOL] |
| Compound metabolized | COc1ccc2[nH]c([S+]([O-])Cc3ncc(C)c(OC)c3C)nc2c1 (stereo not given) [OMEPRAZOLE] |

Conditions: human gut metagenome, 24 h, 2 µM
Remark: another data set of the same source

| Bacterial Biotransformation | SMILES |
| --- | --- |
| Compound NOT metabolized | O=C(CCCN1CCC(O)(c2ccc(Cl)cc2)CC1)c1ccc(F)cc1 [HALOPERIDOL] |
| Compound metabolized | COc1ccc2[nH]c([S+]([O-])Cc3ncc(C)c(OC)c3C)nc2c1 (stereo not given) [OMEPRAZOLE] |

Conditions: human gut metagenome, 24 h, 2 µM
Remark: another data set of the same source

| Bacterial Biotransformation | SMILES |
| --- | --- |
| Compound metabolized | O=C(CCCN1CCC(O)(c2ccc(Cl)cc2)CC1)c1ccc(F)cc1 [HALOPERIDOL] |
| Compound metabolized | COc1ccc2[nH]c([S+]([O-])Cc3ncc(C)c(OC)c3C)nc2c1 (stereo not given) [OMEPRAZOLE] |

Conditions: human gut metagenome, 24 h, 2 µM
Remark: another data set of the same source

| Bacterial Biotransformation | SMILES |
| --- | --- |
| Compound NOT metabolized | O=C(CCCN1CCC(O)(c2ccc(Cl)cc2)CC1)c1ccc(F)cc1 [HALOPERIDOL] |
| Compound metabolized | COc1ccc2[nH]c([S+]([O-])Cc3ncc(C)c(OC)c3C)nc2c1 (stereo not given) [OMEPRAZOLE] |

Conditions: human gut metagenome, 24 h, 2 µM
Remark: another data set of the same source

| Bacterial Biotransformation | SMILES |
| --- | --- |
| Compound NOT metabolized | O=C(CCCN1CCC(O)(c2ccc(Cl)cc2)CC1)c1ccc(F)cc1 [HALOPERIDOL] |
| Compound metabolized | COc1ccc2[nH]c([S+]([O-])Cc3ncc(C)c(OC)c3C)nc2c1 (stereo not given) [OMEPRAZOLE] |
